Reference: patent publication US11529344B2, “EZH2 inhibitor combination therapies” (Pfizer Inc., priority 2017, dated 2022)
“Also recorded” adds a separate entry of the source.

Key:
DMS114 SCLC xenograft = system: DMS114 SCLC xenograft
Text: • (i) Compound Formulation: Compound 1 was formulated as a wet-milled nanosuspension (24 hr milling in 2.5% w/v polyvinyl pyrrolidone (PVP), 0.5% w/v Macrogol 15 Hydroxystearate (Kolliphor HS15) aqueous, with <1 μm particle-size distribution (PSD; ˜650 nm median diameter (d50)) for oral gavage administration. • (ii) Cell Implant, Compound Dosing and Tissue Collection: Immune deficient female mice with a severe combined immunodeficiency (SCID) mutation in a non-obese diabetic background (NOD SCID; 6 to 8 week old; NOD.CB17-Prkdcscid/NCrCrl from Charles River Laboratories) received a subcutaneous (SC) implant of 7.5×10^6 DMS114 cells (in 1:1 matrigel (Trevigen, Cultrex BME Path Clear®, Lot #: 30625F14), total volume 200 μl) into the right flank. Tumor volume and body weight were measured twice a week. On Day 20 post implant, 64 mice were randomized, based on tumor size at a geometric mean (geomean) of about 160 mm^3, into 6 groups corresponding to dose (Table 1). Compounds were administered at 10 ml/kg by oral gavage (Compound 1; BID ( 7/17 hours apart)) or intraperitoneal injection (cisplatin), respectively. The cisplatin dosing schedule was once a week for 3 weeks (Q7Dx3) and started 7 days after the randomization and treatment initiation with Compound 1.
On Day 55, study groups 1, 2, 3 and 4 were terminated (Table 1). Tumor (snap frozen) samples were collected at 4 hours post last dose for pharmacodynamic (PD) analysis. […] Tumor samples from groups 5 and 6 were collected 3 hours post last dose depending on available tumor sizes. All procedures performed on these animals were in accordance with regulations and established guidelines and were reviewed and approved by Pfizer's Institutional Animal Care and Use Committee. • (iii) Data Interpretation: For each experiment, calculations were performed and graphs created in Microsoft Excel and GraphPad Prism version 7.02 respectively. The tumor volume was calculated as 0.5×length×width^2. Tumor growth inhibition (TGI) was determined by the formula: % TGI=[1−(Vtx−Vt0/Vcx−Vc0)]×100, where Vc, Vt are the geometric means of control and treated groups. X=day X on study and 0=initial day of dosing. ELISA Assay: • (i) Histone Extraction: Histone extraction was performed using the EpiQuick Histone Extraction Kit (Epigentek OP0006). Frozen tumor samples were cut and homogenized using cold mortar and pestle on dry-ice. The homogenized mixture was transferred to a 1.5 mL tube in 1× Pre-Lysis Buffer (200 mg/mL) containing phenylmethylsulfonyl fluoride (PMSF). Samples were gently mixed, incubated on ice for 15 minutes, and spun down at 3,000 rpm for 5 minutes at 4° C. The tissue pellet was resuspended in 3 volumes (approximately 200 μL per 100 mg of tissue) of lysis buffer from the Histone Extraction Kit, incubated on ice for 30 minutes, and spun down at 12,000 rpm for 5 minutes at 4° C. Balance-DTT buffer was prepared by adding DTT Solution to balance buffer at a 1:500 ratio. The supernatant (containing acid soluble proteins) was transferred to a new 1.5 mL tube and 0.3 volumes of Balance-dithiothreitol (DTT) buffer from the Histone Extraction Kit were immediately added to each sample. The tumor lysate was briefly sonicated for 4 cycles (30 seconds on and 30 seconds off) at high intensity using the Bioruptor Plus (Diagenode #601020001). Extracts were aliquoted and stored at −20° C. (short term) or −80° C. (long term). Protein concentration was quantified using the Coomassie Plus (Bradford) Assay Kit (Thermo #23236). • (ii) H3K27Me3 and Me2 ELISA Assay: Histone extracts were diluted to a final concentration of 400 ng (or 800 ng) in 100 μL of coating buffer (phosphate buffered saline (PBS) containing 0.05% bovine serum albumin (BSA)).

[1] = system: H3K27Me3 in DMS114 tumors; experiment: H3K27Me3 ELISA on histones of DMS114 xenograft tumors; assay type: in vivo, female NOD/SCID mice; settings: Mus musculus, DMS-114, 1320 h; 300 mg/kg BID, tumors harvested at Day 55; read-out: maximum inhibition of H3K27Me3 in tumor samples
Procedure: Extracts were aliquoted and stored at −20° C. (short term) or −80° C. (long term). […] Data was analyzed using GraphPad Prism version 7.02.
The in vivo activity of Compound 1 against EZH2 in the DMS114 SCLC xenograft model was determined by measurement of the relative amount of cellular H3K27Me3 and Me2 levels with ELISA using the tumor tissue samples harvested at Day 55 from the study described in Example 3 above.

Compound: COc1cc(C)[nH]c(=O)c1CN1CCc2c(Cl)cc([C@H](OC)C3COC3)c(Cl)c2C1=O [Compound 1, 5,8-dichloro-2-[(4-methoxy-6-methyl-2-oxo-1,2-dihydro-pyridin-3-yl)methyl]-7-[(R)-methoxy(oxetan-3-yl)methyl]-3,4-dihydroisoquinolin-1(2H)-one]
- TGI by Day 55 (DMS114 SCLC xenograft; Compound 1 100 mg/kg BID PO, cisplatin 4 mg/kg IP Q7Dx3, alone or combined): 50%
- anti-tumor benefit vs vehicle control group (DMS114 SCLC xenograft; Compound 1 100 mg/kg BID and 300 mg/kg BID, Day 55): significant anti-tumor benefit
- tolerability / body weight loss (DMS114 SCLC xenograft; Compound 1 PO BID, cisplatin 4 mg/kg IP Q7Dx3, combination with Compound 1 100 mg/kg BID): well tolerated with limited bodyweight loss; also recorded: minimal toxicity
- complete tumor regressions (DMS114 SCLC xenograft; Compound 1 monotherapy arms, 30, 100 and 300 mg/kg BID): No complete tumor regressions
- tumors regressed or progressed compared to the starting tumor burden (DMS114 SCLC xenograft; Day 55, Compound 1 100 mg/kg BID, cisplatin 4 mg/kg Q7Dx3): all tumors had progressed
- survival benefit, Log-rank test (Mantel-Cox) (DMS114 SCLC xenograft; survival cut-off at 500 mm^3 tumor burden): did not reach the P<0.05 significance level
- median survival (DMS114 SCLC xenograft; survival cut-off at 500 mm^3 tumor burden, Compound 1 100 mg/kg BID, cisplatin 4 mg/kg Q7Dx3): 39 days
- inhibition at 300 mg/kg [1]: 96%
